# Results as given in BindingDB's records for doi:10.1021/jm980001q (G.D. Searle And, 1998).
# Biological target: T1, Glycylpeptide N-tetradecanoyltransferase (Candida albicans (strain SC5314 / ATCC MYA-2876), UniProt P30418)
# T1 sequence (P30418 whole entry): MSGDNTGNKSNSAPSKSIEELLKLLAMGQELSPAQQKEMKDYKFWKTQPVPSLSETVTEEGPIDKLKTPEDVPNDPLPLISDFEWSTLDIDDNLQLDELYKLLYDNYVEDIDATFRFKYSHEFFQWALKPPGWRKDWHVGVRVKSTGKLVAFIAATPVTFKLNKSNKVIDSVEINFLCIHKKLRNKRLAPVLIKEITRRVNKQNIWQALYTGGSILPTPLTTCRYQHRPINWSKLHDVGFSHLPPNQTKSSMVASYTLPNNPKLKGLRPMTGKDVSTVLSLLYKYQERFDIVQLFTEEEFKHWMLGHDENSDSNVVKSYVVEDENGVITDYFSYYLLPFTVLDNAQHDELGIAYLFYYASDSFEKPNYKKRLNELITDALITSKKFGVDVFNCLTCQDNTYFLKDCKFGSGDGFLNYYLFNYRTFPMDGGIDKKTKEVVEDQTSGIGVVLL
# Test: The Compound was tested for the inhibition potency against Candida albicans N-myristoyltransferase (NMT) and reported as apparent Ki
substance,measurement,value
H-ALYASKLS-NH2,Ki,15.3 µM
